Source: ChEMBL document CHEMBL4145686, “Discovery of a Potent and Selective Steroidal Glucocorticoid Receptor Antagonist (ORIC-101)” (J Med Chem, 2018)

Assays:
Cytochrome P450 2C9 = Cytochrome P450 2C9 (Homo sapiens, UniProt P11712); experiment: Inhibition of CYP2C9 (unknown origin) using […] as substrate; format: ADME
[1] = Cmax in rat at 5 mg/kg, po; format: ADME, organism-based; design: dose 5 mg/kg, route oral; conditions: in vivo
[2] = molecular target: T1, glucocorticoid receptor (GR) (Homo sapiens, UniProt P04150); experiment: Agonist activity at human GR expressed in CHO-K1 cells incubated for 20 hrs by luciferase reporter gene assay relative to dexamethasone; format: cell-based; conditions: CHO-K1 cells expressing human GR
T1 sequence (P04150 whole entry): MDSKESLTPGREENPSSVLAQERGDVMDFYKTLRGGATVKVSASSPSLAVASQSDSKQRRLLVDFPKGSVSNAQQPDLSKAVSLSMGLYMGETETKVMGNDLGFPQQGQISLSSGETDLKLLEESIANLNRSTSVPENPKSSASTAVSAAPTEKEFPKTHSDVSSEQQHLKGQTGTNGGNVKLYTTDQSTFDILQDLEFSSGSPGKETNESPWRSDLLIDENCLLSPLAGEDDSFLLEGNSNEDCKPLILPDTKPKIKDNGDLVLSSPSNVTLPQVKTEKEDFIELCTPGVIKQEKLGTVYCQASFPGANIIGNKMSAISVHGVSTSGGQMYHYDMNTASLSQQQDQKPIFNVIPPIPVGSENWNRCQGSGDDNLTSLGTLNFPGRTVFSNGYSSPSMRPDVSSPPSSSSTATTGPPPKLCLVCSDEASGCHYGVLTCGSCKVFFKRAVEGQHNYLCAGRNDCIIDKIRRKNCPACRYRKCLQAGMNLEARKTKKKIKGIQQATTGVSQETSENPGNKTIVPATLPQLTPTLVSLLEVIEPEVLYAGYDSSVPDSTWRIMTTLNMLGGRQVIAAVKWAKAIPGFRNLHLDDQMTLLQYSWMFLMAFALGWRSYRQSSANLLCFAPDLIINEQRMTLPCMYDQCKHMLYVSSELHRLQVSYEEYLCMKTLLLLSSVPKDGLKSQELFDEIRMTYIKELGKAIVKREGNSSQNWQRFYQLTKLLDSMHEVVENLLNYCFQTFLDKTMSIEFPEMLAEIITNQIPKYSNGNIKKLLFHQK

[3] = AUC in rat at 5 mg/kg, po; format: ADME, organism-based; conditions: in vivo
[4] = Volume of distribution at steady state in rat at 0.5 mg/kg, iv; format: ADME, organism-based; conditions: in vivo, read-out: Vdss
Glucocorticoid receptor [5] = molecular target: T2, Glucocorticoid receptor (Homo sapiens, UniProt P04150); experiment: Antagonist activity at human GR expressed in CHO-K1 cells assessed as reduction in dexamethasone-induced response incubated for 20 hrs by luciferase reporter gene assay; format: cell-based
T2 sequence (P04150 whole entry): T1 sequence (P04150 whole entry)

[6] = Clearance in rat at 0.5 mg/kg, iv; format: ADME, organism-based; conditions: in vivo
androgen receptor (AR) = molecular target: T3, androgen receptor (AR) (Homo sapiens, UniProt P10275); experiment: Agonist activity at AR (unknown origin) expressed in human LNCaP cells incubated for 20 hrs by luciferase reporter gene assay relative to mifepristone; format: cell-based; conditions: human LNCaP cells expressing AR
T3 sequence (P10275 whole entry): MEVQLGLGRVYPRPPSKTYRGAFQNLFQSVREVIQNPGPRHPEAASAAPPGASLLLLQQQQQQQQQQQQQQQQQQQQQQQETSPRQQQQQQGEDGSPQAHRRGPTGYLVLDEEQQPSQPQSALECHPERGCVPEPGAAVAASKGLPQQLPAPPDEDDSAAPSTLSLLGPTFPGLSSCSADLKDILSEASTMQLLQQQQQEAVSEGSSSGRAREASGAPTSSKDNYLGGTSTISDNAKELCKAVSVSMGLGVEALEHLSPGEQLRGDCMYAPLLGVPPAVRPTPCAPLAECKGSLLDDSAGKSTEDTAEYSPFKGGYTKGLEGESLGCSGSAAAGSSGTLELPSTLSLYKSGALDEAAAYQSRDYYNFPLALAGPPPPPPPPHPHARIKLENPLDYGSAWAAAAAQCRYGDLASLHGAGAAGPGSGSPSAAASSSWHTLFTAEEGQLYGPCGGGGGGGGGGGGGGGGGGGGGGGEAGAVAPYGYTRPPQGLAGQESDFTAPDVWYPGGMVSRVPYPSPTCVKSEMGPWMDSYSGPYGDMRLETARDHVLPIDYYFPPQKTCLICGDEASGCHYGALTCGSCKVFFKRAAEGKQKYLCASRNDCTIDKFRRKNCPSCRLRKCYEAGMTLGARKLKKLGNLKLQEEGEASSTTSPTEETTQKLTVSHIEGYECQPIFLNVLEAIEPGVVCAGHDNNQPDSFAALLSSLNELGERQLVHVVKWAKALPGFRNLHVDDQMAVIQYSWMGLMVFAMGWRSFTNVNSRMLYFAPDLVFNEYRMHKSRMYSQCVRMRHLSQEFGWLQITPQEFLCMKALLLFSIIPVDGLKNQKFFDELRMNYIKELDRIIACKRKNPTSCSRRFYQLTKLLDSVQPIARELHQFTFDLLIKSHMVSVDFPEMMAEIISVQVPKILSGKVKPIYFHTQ

[7] = Oral bioavailability in rat at 5 mg/kg; format: ADME, organism-based; conditions: in vivo
[8] = Half life in rat at 0.5 mg/kg, iv; format: ADME, organism-based; conditions: in vivo
Cytochrome P450 3A4 = Cytochrome P450 3A4 (Homo sapiens, UniProt P08684); experiment: Inhibition of CYP3A4 (unknown origin) using midazolam as substrate; format: ADME
Sequence of Cytochrome P450 3A4 (P08684 whole entry): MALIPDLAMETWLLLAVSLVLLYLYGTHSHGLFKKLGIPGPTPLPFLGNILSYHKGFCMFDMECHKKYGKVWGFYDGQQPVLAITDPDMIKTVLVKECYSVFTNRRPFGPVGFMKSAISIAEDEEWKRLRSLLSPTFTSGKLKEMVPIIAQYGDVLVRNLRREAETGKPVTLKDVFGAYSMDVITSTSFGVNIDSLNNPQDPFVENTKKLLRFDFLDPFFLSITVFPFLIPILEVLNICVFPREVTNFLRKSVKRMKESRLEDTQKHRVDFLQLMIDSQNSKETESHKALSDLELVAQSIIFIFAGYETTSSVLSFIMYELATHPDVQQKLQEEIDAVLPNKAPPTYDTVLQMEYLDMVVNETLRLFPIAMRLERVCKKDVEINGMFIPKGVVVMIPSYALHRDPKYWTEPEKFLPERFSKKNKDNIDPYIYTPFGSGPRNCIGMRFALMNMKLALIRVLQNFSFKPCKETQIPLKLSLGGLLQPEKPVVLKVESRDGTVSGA

Cytochrome P450 2C8 = molecular target: T4, Cytochrome P450 2C8 (Homo sapiens, UniProt P10632); experiment: Inhibition of CYP2C8 (unknown origin) using […] as substrate; format: ADME
T4 sequence (P10632 whole entry): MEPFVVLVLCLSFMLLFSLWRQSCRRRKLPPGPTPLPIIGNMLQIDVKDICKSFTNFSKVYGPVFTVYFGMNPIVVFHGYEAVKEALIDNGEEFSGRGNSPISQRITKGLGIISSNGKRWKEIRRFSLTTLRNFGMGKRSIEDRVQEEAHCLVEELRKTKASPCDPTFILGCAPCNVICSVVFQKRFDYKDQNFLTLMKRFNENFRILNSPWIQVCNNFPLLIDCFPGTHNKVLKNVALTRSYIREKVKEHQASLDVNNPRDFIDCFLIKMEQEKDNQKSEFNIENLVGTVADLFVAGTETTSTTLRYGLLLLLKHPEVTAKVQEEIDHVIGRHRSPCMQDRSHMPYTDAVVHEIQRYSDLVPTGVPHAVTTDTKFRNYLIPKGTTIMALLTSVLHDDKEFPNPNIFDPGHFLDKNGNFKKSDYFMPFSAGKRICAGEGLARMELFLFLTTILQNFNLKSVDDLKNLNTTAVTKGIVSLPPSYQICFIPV

Glucocorticoid receptor [9] = molecular target: T2, Glucocorticoid receptor; experiment: Agonist activity at human GR expressed in CHO-K1 cells incubated for 20 hrs by luciferase reporter gene assay; format: cell-based
Androgen receptor [10] = molecular target: T5, Androgen receptor (Homo sapiens, UniProt P10275); experiment: Agonist activity at AR (unknown origin) expressed in human LNCaP cells incubated for 20 hrs by luciferase reporter gene assay; format: cell-based
T5 sequence (P10275 whole entry): T3 sequence (P10275 whole entry)

Androgen receptor [11] = molecular target: T5, Androgen receptor; experiment: Agonist activity at AR in human LNAR cells assessed as increase in TMPRSS2 gene expression at 0.1 nM incubated for 24 hrs in presence of 1 uM enzalutamide by RT-qPCR method; format: cell-based; conditions: 0.0001 µM
Androgen receptor [12] = molecular target: T5, Androgen receptor; experiment: Agonist activity at AR in human LNAR cells assessed as increase in TMPRSS2 gene expression at 0.1 nM incubated for 24 hrs by RT-qPCR method; format: cell-based; conditions: 0.0001 µM
Androgen receptor [13] = molecular target: T5, Androgen receptor; experiment: Agonist activity at AR in human LNAR cells assessed as increase in PSA gene expression at 0.1 nM incubated for 24 hrs by RT-qPCR method; format: cell-based; conditions: 0.0001 µM
Androgen receptor [14] = molecular target: T5, Androgen receptor; experiment: Agonist activity at AR in human LNAR cells assessed as increase in PSA gene expression at 0.1 nM incubated for 24 hrs in presence of 1 uM enzalutamide by RT-qPCR method; format: cell-based; conditions: 0.0001 µM

Sequence of Cytochrome P450 2C9 (P11712 whole entry): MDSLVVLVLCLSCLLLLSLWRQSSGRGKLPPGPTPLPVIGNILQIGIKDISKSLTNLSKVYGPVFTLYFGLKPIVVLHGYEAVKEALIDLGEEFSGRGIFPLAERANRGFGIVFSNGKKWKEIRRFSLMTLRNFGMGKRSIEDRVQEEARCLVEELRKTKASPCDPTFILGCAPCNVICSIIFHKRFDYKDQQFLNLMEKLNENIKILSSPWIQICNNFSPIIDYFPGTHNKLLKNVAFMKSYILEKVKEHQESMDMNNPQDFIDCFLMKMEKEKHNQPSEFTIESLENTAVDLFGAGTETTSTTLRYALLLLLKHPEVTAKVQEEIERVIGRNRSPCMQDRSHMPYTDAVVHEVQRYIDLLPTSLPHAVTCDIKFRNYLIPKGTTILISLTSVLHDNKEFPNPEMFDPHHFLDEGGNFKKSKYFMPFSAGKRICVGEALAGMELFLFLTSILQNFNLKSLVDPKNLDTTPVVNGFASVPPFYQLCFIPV

| Compound | IC50 (Cytochrome P450 2C9) | Cmax [1] | Emax at 20 h [2] | AUC [3] | Vd [4] | IC50 (Glucocorticoid receptor [5]) | clearance [6] | Emax at 20 h (androgen receptor (AR)) | bioavailability [7] | half-life [8] | IC50 (Cytochrome P450 3A4) | IC50 (Cytochrome P450 2C8) | EC50 (Glucocorticoid receptor [9]) | EC50 (Androgen receptor [10]) | Activity (Androgen receptor [11]) | Activity (Androgen receptor [12]) | Activity (Androgen receptor [13]) | Activity (Androgen receptor [14]) |
| --- | --- | --- | --- | --- | --- | --- | --- | --- | --- | --- | --- | --- | --- | --- | --- | --- | --- | --- |
| CN(C)c1ccc([C@H]2C[C@@]3(C)[C@@H](CC[C@@]3(O)C#CC(C)(C)C)[C@@H]3CCC4=CC(=O)CCC4=C32)cc1 | > 10000 nM | 72 ng/mL | 1.4% | 471 ng·h/mL | 4.9 L/kg | 14.6 nM | 66.7 mL/min/kg | 13.4% | 37% | 1.9 h | 2900 nM | > 10000 nM | > 2500 nM | > 2500 nM | – | – | – | – |
| C[C@]1(O)CC[C@H]2[C@@H]3CCC4=CC(=O)CCC4=C3C=C[C@@]21C [METRIBOLONE] | – | – | – | – | – | – | – | – | – | – | – | – | – | – | Not Active | Active | Active | Not Active |
